Earlier results as cited in patent publication US6906047B2, “Aqueous ifosfamide composition” (Gensia Sicor Pharmaceuticals, Inc., priority 2001, dated 2005).

In the case of `O=P1(NCCCl)OCCCN1CCCl` (stereo not shown) [ifosfamide, 3-(2-chloroethyl)-2-[(2-chloroethylamino)]-tetrahydro-2H-1,3,2-oxazaphosphorin-2-oxide], the “solubility of ifosfamide in water” value is given as “about 10 % by weight”.
